{"source": "PubChem BioAssay AID190", "about": "(DTP/NCI, 2004)", "tested_on": "AKR/Lw mice, AKR lymphoma ip, median survival T/C", "experiment": "NCI In Vivo Anticancer Drug Screen. Data for tumor model Lymphoma AKR (Transplanted) (intraperitoneal) in AKR/Lw mice", "conditions": "endpoint: median survival time, higher = longer survival", "experimental": "The antitumor activity of compounds was measured in mice bearing transplantable tumors. Survival or tumor size were measured and the results are expressed as the measurement made in the treated group (T) divided by the measurement made in the vehicle treated control group (C). The tumor model used in this assay is Lymphoma AKR (Transplanted) (intraperitoneal) in AKR/Lw mice", "note": "Several values for one entry are separate records, joined by “and”; a condition that tells them apart may be missing. Identical values can stand only once. Toxic doses and inconclusive results are not listed.", "data": [{"smiles": "O=C1CSC(=S)N1c1ccco1", "values": [{"measurement": "T/C", "setting": "dose: 25.0 mg/kg/injection, schedule: Q04DX003 (ip), vehicle: Klucel (hydroxypropylcellulose) (HPC)", "result": "109 % of control"}, {"measurement": "T/C", "setting": "dose: 50.0 mg/kg/injection, schedule: Q01DX009 (ip), vehicle: Klucel (hydroxypropylcellulose) (HPC)", "result": "97 % of control"}, {"measurement": "T/C", "setting": "dose: 50.0 mg/kg/injection, schedule: Q04DX003 (ip), vehicle: Klucel (hydroxypropylcellulose) (HPC)", "result": "92 % of control"}, {"measurement": "T/C", "setting": "dose: 100.0 mg/kg/injection, schedule: Q01DX001 (ip), vehicle: Klucel (hydroxypropylcellulose) (HPC)", "result": "103 % of control"}, {"measurement": "T/C", "setting": "dose: 100.0 mg/kg/injection, schedule: Q01DX009 (ip), vehicle: Klucel (hydroxypropylcellulose) (HPC)", "result": "95 % of control"}, {"measurement": "T/C", "setting": "dose: 100.0 mg/kg/injection, schedule: Q04DX003 (ip), vehicle: Klucel (hydroxypropylcellulose) (HPC)", "result": "90 % of control"}, {"measurement": "T/C", "setting": "dose: 200.0 mg/kg/injection, schedule: Q01DX001 (ip), vehicle: Klucel (hydroxypropylcellulose) (HPC)", "result": "96 % of control"}, {"measurement": "T/C", "setting": "dose: 200.0 mg/kg/injection, schedule: Q01DX009 (ip), vehicle: Klucel (hydroxypropylcellulose) (HPC)", "result": "102 % of control"}, {"measurement": "T/C", "setting": "dose: 200.0 mg/kg/injection, schedule: Q04DX003 (ip), vehicle: Klucel (hydroxypropylcellulose) (HPC)", "result": "88 % of control"}]}, {"smiles": "O=c1[nH]cc(F)c(=O)[nH]1", "values": [{"measurement": "T/C", "setting": "dose: 1.25 mg/kg/injection, schedule: Q01DX005 (ip), vehicle: saline", "result": "152 % of control"}, {"measurement": "T/C", "setting": "dose: 1.25 mg/kg/injection, schedule: Q03HX032 (ip), vehicle: saline", "result": "118 % of control"}, {"measurement": "T/C", "setting": "dose: 2.5 mg/kg/injection, schedule: Q01DX005 (ip), vehicle: saline", "result": "114 % of control"}, {"measurement": "T/C", "setting": "dose: 2.5 mg/kg/injection, schedule: Q01DX015 (ip), vehicle: saline", "result": "113 % of control"}, {"measurement": "T/C", "setting": "dose: 3.1 mg/kg/injection, schedule: Q04DX003 (ip), vehicle: saline", "result": "123 % of control"}, {"measurement": "T/C", "setting": "dose: 5.0 mg/kg/injection, schedule: Q01DX001 (ip), vehicle: saline", "result": "102 % of control"}, {"measurement": "T/C", "setting": "dose: 5.0 mg/kg/injection, schedule: Q01DX009 (ip), vehicle: saline", "result": "100 % of control and 106 % of control"}, {"measurement": "T/C", "setting": "dose: 5.0 mg/kg/injection, schedule: Q01DX015 (ip), vehicle: saline", "result": "108 % of control"}, {"measurement": "T/C", "setting": "dose: 5.0 mg/kg/injection, schedule: Q04DX003 (ip), vehicle: saline", "result": "97 % of control"}, {"measurement": "T/C", "setting": "dose: 5.0 mg/kg/injection, schedule: Q04DX004 (ip), vehicle: saline", "result": "115 % of control"}, {"measurement": "T/C", "setting": "dose: 5.0 mg/kg/injection, schedule: Q##DX003 (ip), vehicle: saline", "result": "97 % of control"}, {"measurement": "T/C", "setting": "dose: 6.2 mg/kg/injection, schedule: Q01DX001 (ip), vehicle: saline", "result": "104 % of control"}, {"measurement": "T/C", "setting": "dose: 6.2 mg/kg/injection, schedule: Q04DX003 (ip), vehicle: saline", "result": "113 % of control"}, {"measurement": "T/C", "setting": "dose: 7.5 mg/kg/injection, schedule: Q01DX009 (ip), vehicle: saline", "result": "105 % of control"}, {"measurement": "T/C", "setting": "dose: 9.0 mg/kg/injection, schedule: Q04DX003 (ip), vehicle: saline", "result": "112 % of control"}, {"measurement": "T/C", "setting": "dose: 10.0 mg/kg/injection, schedule: Q01DX001 (ip), vehicle: saline", "result": "94 % of control"}, {"measurement": "T/C", "setting": "dose: 10.0 mg/kg/injection, schedule: Q01DX009 (ip), vehicle: saline with Tween-80", "result": "118 % of control"}, {"measurement": "T/C", "setting": "dose: 10.0 mg/kg/injection, schedule: Q01DX015 (ip), vehicle: saline", "result": "180 % of control"}, {"measurement": "T/C", "setting": "dose: 10.0 mg/kg/injection, schedule: Q04DX003 (ip), vehicle: saline", "result": "168 % of control"}, {"measurement": "T/C", "setting": "dose: 10.0 mg/kg/injection, schedule: Q##DX003 (ip), vehicle: saline", "result": "168 % of control"}, {"measurement": "T/C", "setting": "dose: 12.5 mg/kg/injection, schedule: Q01DX001 (ip), vehicle: saline", "result": "100 % of control and 121 % of control"}, {"measurement": "T/C", "setting": "dose: 15.0 mg/kg/injection, schedule: Q01DX009 (ip), vehicle: saline", "result": "113 % of control"}, {"measurement": "T/C", "setting": "dose: 15.0 mg/kg/injection, schedule: Q01DX015 (ip), vehicle: saline", "result": "150 % of control and 177 % of control"}, {"measurement": "T/C", "setting": "dose: 15.0 mg/kg/injection, schedule: Q04DX004 (ip), vehicle: saline", "result": "113 % of control"}, {"measurement": "T/C", "setting": "dose: 18.0 mg/kg/injection, schedule: Q04DX003 (ip), vehicle: water", "result": "98 % of control"}, {"measurement": "T/C", "setting": "dose: 20.0 mg/kg/injection, schedule: Q01DX001 (ip), vehicle: saline", "result": "105 % of control"}, {"measurement": "T/C", "setting": "dose: 20.0 mg/kg/injection, schedule: Q01DX005 (ip), vehicle: saline", "result": "161 % of control"}, {"measurement": "T/C", "setting": "dose: 20.0 mg/kg/injection, schedule: Q01DX009 (ip), vehicle: saline with Tween-80", "result": "122 % of control"}, {"measurement": "T/C", "setting": "dose: 20.0 mg/kg/injection, schedule: Q01DX015 (ip), vehicle: saline", "result": "167 % of control"}, {"measurement": "T/C", "setting": "dose: 20.0 mg/kg/injection, schedule: Q03HX024 (ip), vehicle: saline", "result": "95 % of control"}, {"measurement": "T/C", "setting": "dose: 20.0 mg/kg/injection, schedule: Q04DX003 (ip), vehicle: saline", "result": "107 % of control"}, {"measurement": "T/C", "setting": "dose: 20.0 mg/kg/injection, schedule: Q##DX003 (ip), vehicle: saline", "result": "107 % of control"}, {"measurement": "T/C", "setting": "dose: 24.0 mg/kg/injection, schedule: Q04DX003 (ip), vehicle: water", "result": "119 % of control"}, {"measurement": "T/C", "setting": "dose: 25.0 mg/kg/injection, schedule: Q01DX001 (ip), vehicle: saline", "result": "109 % of control and 116 % of control"}, {"measurement": "T/C", "setting": "dose: 30.0 mg/kg/injection, schedule: Q01DX005 (ip), vehicle: saline", "result": "161 % of control"}, {"measurement": "T/C", "setting": "dose: 30.0 mg/kg/injection, schedule: Q01DX009 (ip), vehicle: saline", "result": "177 % of control"}, {"measurement": "T/C", "setting": "dose: 30.0 mg/kg/injection, schedule: Q04DX004 (ip), vehicle: saline", "result": "107 % of control"}, {"measurement": "T/C", "setting": "dose: 36.0 mg/kg/injection, schedule: Q04DX003 (ip), vehicle: water", "result": "163 % of control"}, {"measurement": "T/C", "setting": "dose: 40.0 mg/kg/injection, schedule: Q01DX009 (ip), vehicle: saline with Tween-80", "result": "86 % of control"}, {"measurement": "T/C", "setting": "dose: 40.0 mg/kg/injection, schedule: Q04DX004 (ip), vehicle: saline", "result": "168 % of control"}, {"measurement": "T/C", "setting": "dose: 40.0 mg/kg/injection, schedule: Q##DX003 (ip), vehicle: saline", "result": "97 % of control"}, {"measurement": "T/C", "setting": "dose: 45.0 mg/kg/injection, schedule: Q04DX004 (ip), vehicle: saline", "result": "123 % of control and 291 % of control"}, {"measurement": "T/C", "setting": "dose: 60.0 mg/kg/injection, schedule: Q04DX003 (ip), vehicle: saline", "result": "89 % of control"}, {"measurement": "T/C", "setting": "dose: 60.0 mg/kg/injection, schedule: Q04DX004 (ip), vehicle: saline", "result": "157 % of control and 352 % of control"}, {"measurement": "T/C", "setting": "dose: 60.0 mg/kg/injection, schedule: Q04DX008 (ip), vehicle: saline", "result": "108 % of control"}, {"measurement": "T/C", "setting": "dose: 75.0 mg/kg/injection, schedule: Q01DX001 (ip), vehicle: saline", "result": "150 % of control and 166 % of control"}, {"measurement": "T/C", "setting": "dose: 75.0 mg/kg/injection, schedule: Q04DX003 (ip), vehicle: saline", "result": "260 % of control"}, {"measurement": "T/C", "setting": "dose: 75.0 mg/kg/injection, schedule: Q04DX004 (ip), vehicle: saline", "result": "88 % of control"}, {"measurement": "T/C", "setting": "dose: 80.0 mg/kg/injection, schedule: Q04DX003 (ip), vehicle: saline", "result": "99 % of control"}, {"measurement": "T/C", "setting": "dose: 150.0 mg/kg/injection, schedule: Q04DX003 (ip), vehicle: saline", "result": "105 % of control"}, {"measurement": "T/C", "setting": "dose: 300.0 mg/kg/injection, schedule: Q04DX003 (ip), vehicle: saline", "result": "88 % of control"}]}]}
